Some test systems named below: Malme-3M; SR; NCI-H23; K562; HCT-116; M14; SF-295; SK-MEL-5; SNB-75; NCI-H460; NCI-H522; T47D; A498; PC-3; ACHN; A549; SW-620; SK-MEL-2; OVCAR-4; HOP-92.
Assay in all cases: NCI-60 cell line screen, 48 h

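All cell lines were grown in 96-well plates and treated with compound for 48 hours. GI50 is the concentration that inhibits growth by half.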 Calls of active or inactive are those of the source. Cut-off read from the data, not from the text of the source: active = GI50 up to about 1.1 µM and inactive = higher.

Consider `CN(C)CCn1c(=O)c2ccc3c4c(nn3CCN(C)C)c3cc(O)ccc3n(c1=O)c24`, for which the GI50 with Malme-3M was 0.354 µM (active); in the assay on SR it was < 0.01 µM (active); in the assay with NCI-H23 it was 0.0855 µM (active); in the assay on K562, 0.0459 µM (active); in the assay on HCT-116, < 0.0225 µM (active); with M14 it was 0.397 µM (active). Also, the GI50 is 0.0136 µM (active) with SF-295; 0.319 µM (active) in the assay with SK-MEL-5; 0.059 µM (active) in the assay on SNB-75; < 0.0411 µM (active) in the assay with NCI-H460; < 0.01 µM (active) with NCI-H522; 0.378 µM (active) in the assay on T47D. Also, the GI50 is 0.198 µM (active) in the assay on A498; 0.0659 µM (active) with PC-3; < 0.0308 µM (active) in the assay with ACHN; 0.0325 µM (active) in the assay on A549; 0.0365 µM (active) in the assay with SW-620; 0.131 µM (active) with SK-MEL-2.

Take `COc1ccc2cc(-c3ccc(OC)c(OC)c3)c(=O)oc2c1`: the GI50 in the assay on Malme-3M, in the assay on SR, with NCI-H23, in the assay with K562, with HCT-116 and in the assay with M14 was > 100 µM (inactive) each time. Also, the GI50 is 53.1 µM (inactive) in the assay on SF-295; > 100 µM (inactive) with SK-MEL-5; > 100 µM (inactive) with NCI-H460; > 100 µM (inactive) in the assay on NCI-H522; > 100 µM (inactive) with T47D; 96.8 µM (inactive) in the assay with A498. The GI50 with OVCAR-4, in the assay on PC-3, in the assay with HOP-92, with ACHN, in the assay with A549 and in the assay with SW-620 was > 100 µM (inactive) each time. In addition, in the assay with SK-MEL-2, the GI50 is > 100 µM (inactive).

On to `NCCc1ccc2c(c1)C(=O)c1c(O)ccc(O)c1C2=O`, for which the GI50 in the assay on Malme-3M is 1.87 µM (inactive); with SR, 3.43 µM (inactive); in the assay on NCI-H23 it was 3.5 µM (inactive); in the assay with K562, 3.94 µM (inactive); with HCT-116, 2.69 µM (inactive); with M14, 3.08 µM (inactive). Also, the GI50 in the assay with SF-295 was 4.62 µM (inactive); in the assay on SK-MEL-5, 0.843 µM (active); in the assay on SNB-75 it was 4.57 µM (inactive); in the assay on NCI-H460 it was > 20.7 µM (inactive); in the assay on T47D, 3.37 µM (inactive); in the assay on A498, > 58.1 µM (inactive). For the same molecule, the GI50 in the assay on PC-3 is 3.33 µM (inactive); in the assay with HOP-92 it was 4.05 µM (inactive); in the assay on ACHN it was 4.46 µM (inactive); in the assay on A549 it was 3.56 µM (inactive); in the assay with SW-620, 3.95 µM (inactive); in the assay on SK-MEL-2 it was 6.55 µM (inactive).

Regarding `C=CCC1(C)CCCN(Cc2ccccc2)C1=O` (centres undefined), the GI50 in the assay with Malme-3M was 0.0161 µM (active); in the assay on SR, > 10 µM (inactive); in the assay with NCI-H23, > 10 µM (inactive); in the assay with K562, > 10 µM (inactive); with HCT-116 it was > 10 µM (inactive); with M14, > 10 µM (inactive). The GI50 in the assay on SF-295 was > 10 µM (inactive); in the assay on SK-MEL-5, 0.41 µM (active); with NCI-H460, > 10 µM (inactive); in the assay on NCI-H522, > 10 µM (inactive); in the assay with T47D, > 10 µM (inactive); with A498, 1.32 µM (inactive). For the same molecule, the GI50 in the assay with OVCAR-4, with PC-3, with HOP-92, in the assay with ACHN, with A549 and with SW-620 was > 10 µM (inactive) in each case. Moreover, the GI50 with SK-MEL-2 is > 10 µM (inactive).

Turning to `O=C1N2CCc3c([nH]c4ccccc34)C23CC2CCCCC12S3` (centres undefined), the GI50 in the assay on Malme-3M is > 100 µM (inactive); in the assay with SR it was 34.5 µM (inactive); in the assay with NCI-H23 it was > 100 µM (inactive); in the assay on K562 it was 34.6 µM (inactive); in the assay on HCT-116 it was > 100 µM (inactive); in the assay on M14, > 100 µM (inactive). The GI50 was > 100 µM (inactive) with SF-295; 63.5 µM (inactive) with SK-MEL-5; > 100 µM (inactive) with NCI-H522; > 100 µM (inactive) in the assay on T47D; > 100 µM (inactive) in the assay on A498; > 100 µM (inactive) in the assay with OVCAR-4. The GI50 in the assay on PC-3 is > 100 µM (inactive); in the assay with HOP-92, > 100 µM (inactive); with ACHN, > 100 µM (inactive); with A549 it was > 100 µM (inactive); with SW-620, > 100 µM (inactive); with SK-MEL-2, < 0.01 µM (active).

Take `CN(C)CCNC(=O)Cn1cc([N+](=O)[O-])c(=O)c2ccccc21`: the GI50 in the assay on Malme-3M, in the assay on SR, in the assay with NCI-H23, in the assay on K562, in the assay with HCT-116 and with M14 was > 100 µM (inactive) throughout. Besides, the GI50 in the assay with SF-295 is > 100 µM (inactive); in the assay on SK-MEL-5, > 100 µM (inactive); with SNB-75, 58.3 µM (inactive); in the assay on NCI-H460, > 100 µM (inactive); with NCI-H522, > 100 µM (inactive); in the assay on T47D it was > 100 µM (inactive). For the same molecule, the GI50 in the assay on A498, in the assay with PC-3, with ACHN, in the assay with A549, in the assay on SW-620 and in the assay on SK-MEL-2 was > 100 µM (inactive) throughout.

In the case of `CCN(CCN(CC)C(=O)NC)C(=O)NC`, the GI50 in the assay on Malme-3M, in the assay with SR, with NCI-H23, in the assay on K562, in the assay with HCT-116 and in the assay with M14 was > 100 µM (inactive) each time. In addition, the GI50 with SF-295, in the assay on SK-MEL-5, in the assay on SNB-75, with NCI-H460, in the assay on NCI-H522 and in the assay on T47D was > 100 µM (inactive) in each case. Moreover, the GI50 in the assay on A498, in the assay on PC-3, in the assay with HOP-92, in the assay on ACHN, with A549 and with SW-620 was > 100 µM (inactive) each time. Besides, the GI50 in the assay with SK-MEL-2 is > 100 µM (inactive).

Take `O=C(O)c1ccc(S(=O)(=O)c2ccccc2[N+](=O)[O-])cc1`: the GI50 in the assay on Malme-3M, in the assay with SR, with NCI-H23, in the assay on K562, in the assay with HCT-116 and with M14 was > 10 µM (inactive) throughout. The GI50 in the assay on SF-295, with SK-MEL-5, in the assay on SNB-75, with NCI-H460, in the assay on NCI-H522 and in the assay on T47D was > 10 µM (inactive) in each case. Also, the GI50 in the assay with A498, in the assay with OVCAR-4, with PC-3, with ACHN, with A549 and with SW-620 was > 10 µM (inactive) each time. In the assay on SK-MEL-2, the GI50 is > 10 µM (inactive).

On to `O=C(Nn1c(-c2ccccc2)nc2ccccc2c1=O)c1ccccc1O`, for which the GI50 was 25.7 µM (inactive) in the assay on Malme-3M; 32.8 µM (inactive) with SR; 34.4 µM (inactive) in the assay on NCI-H23; 54 µM (inactive) in the assay on K562; 33.5 µM (inactive) in the assay on HCT-116; 51.1 µM (inactive) in the assay with M14. For the same molecule, the GI50 in the assay on SF-295 is 63.2 µM (inactive); in the assay on SK-MEL-5, 19.4 µM (inactive); with SNB-75, > 100 µM (inactive); with NCI-H460 it was 41.8 µM (inactive); in the assay with NCI-H522 it was 32.9 µM (inactive); in the assay with T47D, 42.3 µM (inactive). Besides, the GI50 in the assay with A498 was 71.6 µM (inactive); in the assay on OVCAR-4, 30.7 µM (inactive); with PC-3, 28.9 µM (inactive); in the assay on HOP-92, 27.2 µM (inactive); in the assay with ACHN it was 37.8 µM (inactive); with A549 it was 36.8 µM (inactive). Moreover, the GI50 with SW-620 was 41.2 µM (inactive).

As to `O=C1c2sc(-c3ccc(Cl)cc3)cc2-n2cccc21`, the GI50 with Malme-3M, in the assay on SR, with K562, with HCT-116, in the assay with M14 and in the assay on SF-295 was > 100 µM (inactive) throughout. The GI50 in the assay with SK-MEL-5, in the assay on SNB-75, in the assay on NCI-H460, with NCI-H522, with T47D and in the assay with A498 was > 100 µM (inactive) in each case. The GI50 in the assay with OVCAR-4, in the assay on PC-3, with ACHN, in the assay on A549, in the assay with SW-620 and in the assay on SK-MEL-2 was > 100 µM (inactive) throughout.

Consider `C=C(C)C1Cc2c(cc3c(c2O)c(=O)c2ccccc2n3C)O1` (centres undefined), for which the GI50 was 1.63 µM (inactive) with Malme-3M; 1.16 µM (inactive) in the assay on SR; 2.36 µM (inactive) with NCI-H23; 1.79 µM (inactive) in the assay with K562; 2.03 µM (inactive) in the assay on HCT-116; 3 µM (inactive) in the assay on M14. The GI50 with SF-295 was 5.78 µM (inactive); in the assay with SK-MEL-5, 2.38 µM (inactive); with SNB-75, 4.5 µM (inactive); with NCI-H460, 3.1 µM (inactive); in the assay on T47D it was 6.67 µM (inactive); in the assay with A498, 10.1 µM (inactive). Also, the GI50 was 6.81 µM (inactive) in the assay on OVCAR-4; 5.71 µM (inactive) with PC-3; 7.67 µM (inactive) with HOP-92; 5.14 µM (inactive) in the assay with ACHN; 6.62 µM (inactive) with A549; 1.81 µM (inactive) in the assay on SW-620. For the same molecule, in the assay on SK-MEL-2, the GI50 was 5.42 µM (inactive).

Source of the values: ChEMBL document CHEMBL1201862, “PubChem BioAssay data set” (2004).
